The results in this text go back to ChEMBL document CHEMBL1201862, “PubChem BioAssay data set” (2004).

Some test systems named below: A498; A549; CAKI-1; CCRF-CEM; HCT-15; HL-60; HT-29; MCF7; MOLT-4; Malme-3M; NCI-H226; NCI-H522; OVCAR-8; PC-3; RPMI-8226; SN12C; SW-620; T47D; U-251; UO-31.
Common to all, as to test: inhibition of tumour cell growth, NCI panel, 48 h

The structures appear in SMILES notation.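 Grown in 96-well plates, cells were treated for 48 hours with each compound at five concentrations. Insufficient inhibition: endpoint recorded as highest concentration tested. GI50: concentration for 50% inhibition of growth.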 The source made the active and inactive calls. No stated cut-off is given here; in the data, active = GI50 up to about 1.1 µM and inactive = higher. A value given as a limit tells only on which side of the number the result lay.

Regarding `COc1ccc(Cc2ccc3nc(O)cc(C)c3c2)cc1S(=O)(=O)O`, the GI50 with A498 is > 100 µM (inactive); with A549 it was > 100 µM (inactive); with CAKI-1, > 100 µM (inactive); in the experiment on CCRF-CEM, > 100 µM (inactive); in the experiment on HCT-15 it was above 100 µM; with HL-60, > 100 µM (inactive). The GI50 with HT-29, in the experiment on MCF7, in the experiment with MOLT-4, with Malme-3M, with NCI-H226 and in the experiment with NCI-H522 was > 100 µM (inactive) in each case. The GI50 in the experiment with OVCAR-8, in the experiment with PC-3, in the experiment with RPMI-8226, in the experiment on SN12C, in the experiment on SW-620 and with T47D was > 100 µM (inactive) throughout. For the same molecule, the GI50 in the experiment on U-251 and in the experiment on UO-31 was > 100 µM (inactive) throughout.
As for `C=C1C(OC)=C(OC)C(=O)c2[nH]c3c(OC)cc([N+](=O)[O-])cc3c21`, the GI50 is > 100 µM (inactive) in the experiment with A498; > 100 µM (inactive) with A549; > 100 µM (inactive) in the experiment with CAKI-1; > 100 µM (inactive) with CCRF-CEM; above 100 µM with HCT-15; > 100 µM (inactive) with HL-60. The GI50 in the experiment on HT-29, in the experiment on MCF7, with MOLT-4, with Malme-3M, in the experiment with NCI-H226 and in the experiment on NCI-H522 was > 100 µM (inactive) each time. Moreover, the GI50 in the experiment with OVCAR-8, in the experiment with PC-3, with RPMI-8226, with SN12C, in the experiment on SW-620 and in the experiment with T47D was > 100 µM (inactive) in each case. Further, the GI50 with U-251 and in the experiment on UO-31 was > 100 µM (inactive) in each case.
For `COc1ccc(CC2C(=O)NC(C)C(=O)N(C)C3C(=O)N(C)C(Cc4ccc(O)c(c4)Oc4ccc(cc4)C3O)C(=O)NC(C)C(=O)NC(C)C(=O)N2C)cc1` (configuration not stated), the GI50 in the experiment on A498 was 0.022 µM (active); with A549 it was 0.0353 µM (active); in the experiment with CAKI-1, 0.0512 µM (active); in the experiment on CCRF-CEM, 0.0013 µM (active); with HCT-15, 0.658 µM; in the experiment with HL-60, 0.00308 µM (active). In addition, the GI50 is 0.0178 µM (active) in the experiment on HT-29; 0.0125 µM (active) in the experiment with MCF7; 0.0162 µM (active) in the experiment with MOLT-4; 0.0171 µM (active) in the experiment with Malme-3M; 0.00459 µM (active) in the experiment with NCI-H226; 0.0125 µM (active) in the experiment on NCI-H522. Besides, the GI50 in the experiment with OVCAR-8 was 0.021 µM (active); with PC-3, 0.01 µM (active); in the experiment with RPMI-8226 it was 0.014 µM (active); in the experiment on SN12C it was 0.018 µM (active); in the experiment on SW-620, 0.0181 µM (active); with T47D, < 0.01 µM (active). Besides, the values for the GI50 in the experiment with U-251 and with UO-31 were 0.00124 µM (active) and 0.824 µM (active), respectively.
For the molecule `CNN1C(=O)c2c(N)c(C#N)c(-c3ccccc3)c(-c3ccccc3)c2C1=O`, the GI50 in the experiment on A498 is > 100 µM (inactive); in the experiment with A549 it was > 100 µM (inactive); with CAKI-1 it was > 100 µM (inactive); in the experiment with CCRF-CEM it was 41.1 µM (inactive); in the experiment with HCT-15 it was above 100 µM; in the experiment on HL-60, 30.5 µM (inactive). Also, the GI50 is 65.8 µM (inactive) in the experiment with MCF7; 39.5 µM (inactive) with MOLT-4; > 100 µM (inactive) in the experiment with Malme-3M; > 100 µM (inactive) with NCI-H226; 84.1 µM (inactive) in the experiment with NCI-H522; 90.6 µM (inactive) with OVCAR-8. For the same molecule, the GI50 in the experiment with PC-3 is 55.6 µM (inactive); in the experiment on RPMI-8226, 24.7 µM (inactive); in the experiment with SN12C, > 100 µM (inactive); in the experiment on SW-620, > 100 µM (inactive); in the experiment on T47D, 17.9 µM (inactive); in the experiment on U-251 it was 78.9 µM (inactive). Besides, the GI50 with UO-31 was 48.6 µM (inactive).
With `CC1=CC(O)C(C(O)(C(F)(F)F)C(F)(F)F)C(C)(C)C1` (configuration not stated), the GI50 with A498 was 0.0296 µM (active); in the experiment on A549, > 10 µM (inactive); in the experiment on CAKI-1, > 10 µM (inactive); in the experiment on CCRF-CEM, > 10 µM (inactive); in the experiment with HCT-15 it was above 10 µM; in the experiment on HL-60 it was > 10 µM (inactive). The GI50 in the experiment on HT-29, with MCF7, in the experiment on MOLT-4, in the experiment on Malme-3M, in the experiment with NCI-H226 and in the experiment with NCI-H522 was > 10 µM (inactive) each time. The GI50 with OVCAR-8, with PC-3, with RPMI-8226, in the experiment with SN12C, in the experiment on SW-620 and with T47D was > 10 µM (inactive) in each case. Moreover, the GI50 in the experiment with U-251 is > 10 µM (inactive).
With `Cc1cn([C@H]2C[C@H](N=[N+]=[N-])[C@@H](CO)O2)c(=O)[nH]c1=O` [ZIDOVUDINE], the GI50 in the experiment with A498 is 66.2 µM (inactive); in the experiment on A549 it was > 97.3 µM (inactive); in the experiment on CAKI-1, > 97.1 µM (inactive); with CCRF-CEM, 288 µM (inactive); with HCT-15, above 100 µM; with HL-60 it was 646 µM (inactive). Further, the GI50 was 238 µM (inactive) with HT-29; 66.4 µM (inactive) in the experiment with MCF7; > 100 µM (inactive) in the experiment on MOLT-4; > 100 µM (inactive) in the experiment with Malme-3M; > 100 µM (inactive) in the experiment with NCI-H226; > 100 µM (inactive) with NCI-H522. The GI50 was 180 µM (inactive) in the experiment on OVCAR-8; 885 µM (inactive) in the experiment on PC-3; 48.3 µM (inactive) in the experiment on RPMI-8226; > 100 µM (inactive) in the experiment on SN12C; > 100 µM (inactive) in the experiment with SW-620; > 100 µM (inactive) in the experiment on T47D. Besides, the GI50 with UO-31 was > 100 µM (inactive).
`O=C1Nc2cc(Cl)ccc2C(=O)N2CCC[C@@H]12`: the GI50 was > 100 µM (inactive) in the experiment on A498; > 100 µM (inactive) with A549; > 100 µM (inactive) in the experiment with CAKI-1; > 100 µM (inactive) in the experiment on CCRF-CEM; above 100 µM with HCT-15; > 100 µM (inactive) in the experiment on HL-60. In addition, the GI50 in the experiment with HT-29 was > 100 µM (inactive); in the experiment on MCF7 it was > 100 µM (inactive); with Malme-3M, > 100 µM (inactive); with NCI-H226 it was 0.929 µM (active); with NCI-H522, 24.9 µM (inactive); with OVCAR-8, > 100 µM (inactive). The GI50 in the experiment with PC-3, in the experiment with RPMI-8226, in the experiment on SN12C, in the experiment with SW-620, in the experiment on T47D and with U-251 was > 100 µM (inactive) in each case. For the same molecule, the GI50 in the experiment on UO-31 is > 100 µM (inactive).
Turning to `CC(=O)/N=C1/N(/C=C2\C(=O)Oc3ccccc3C2=O)C(=O)/C(=C/c2ccccc2Cl)N1C`, the GI50 in the experiment with A498 is 0.564 µM (active); in the experiment on A549, > 100 µM (inactive); with CAKI-1, > 100 µM (inactive); in the experiment on CCRF-CEM, > 100 µM (inactive); in the experiment on HCT-15 it was 52.6 µM; in the experiment with HL-60, > 100 µM (inactive). In addition, the GI50 in the experiment with HT-29, in the experiment on MCF7, in the experiment with MOLT-4, with Malme-3M, in the experiment on NCI-H226 and in the experiment on NCI-H522 was > 100 µM (inactive) each time. Besides, the GI50 with OVCAR-8, in the experiment with PC-3, in the experiment on RPMI-8226, in the experiment with SN12C, in the experiment on SW-620 and in the experiment on T47D was > 100 µM (inactive) throughout. Further, in the experiment on U-251, the GI50 is > 100 µM (inactive).
On to `O=[N+]([O-])c1ccc(Cl)c(CNc2ncnc3c2ncn3C2CCCCO2)c1` (configuration not stated), for which the GI50 in the experiment on A498 was 12.4 µM (inactive); in the experiment with A549 it was 41.7 µM (inactive); in the experiment with CAKI-1, > 100 µM (inactive); with HCT-15, 33.9 µM; in the experiment with HL-60, 26.8 µM (inactive); in the experiment with HT-29, 32.4 µM (inactive). For the same molecule, the GI50 in the experiment on MCF7 is 17.1 µM (inactive); with MOLT-4, 26.1 µM (inactive); with Malme-3M it was 64.9 µM (inactive); in the experiment with NCI-H226, 43.2 µM (inactive); with NCI-H522, 32.8 µM (inactive); with OVCAR-8, 53.6 µM (inactive). Also, the GI50 in the experiment on PC-3 was 39.3 µM (inactive); in the experiment with RPMI-8226, 38.6 µM (inactive); in the experiment with SN12C, 29.6 µM (inactive); with SW-620 it was 35 µM (inactive); in the experiment with T47D, 55.3 µM (inactive); in the experiment on U-251, 32.5 µM (inactive). The GI50 in the experiment on UO-31 was 22 µM (inactive).
Take `N#CC1=C(N)OC(c2cccc([N+](=O)[O-])c2)C1(C#N)C#N` (configuration not stated): the GI50 is 19.7 µM (inactive) with A498; 34.8 µM (inactive) with A549; 2.98 µM (inactive) in the experiment on CAKI-1; 18.7 µM in the experiment on HCT-15; 11.9 µM (inactive) in the experiment on HL-60; 19.1 µM (inactive) with HT-29. Also, the GI50 with MCF7 was 20.8 µM (inactive); in the experiment on Malme-3M, 18.3 µM (inactive); in the experiment with NCI-H226, 30.8 µM (inactive); in the experiment with NCI-H522 it was 14.2 µM (inactive); in the experiment with OVCAR-8 it was 29.4 µM (inactive); in the experiment on PC-3, 23.7 µM (inactive). The GI50 in the experiment with RPMI-8226 was 18.3 µM (inactive); with SN12C, 33.2 µM (inactive); in the experiment with SW-620 it was > 10 µM (inactive); in the experiment with T47D, 17.4 µM (inactive); with U-251, 39.9 µM (inactive); in the experiment with UO-31, 17.9 µM (inactive).
